# Data from patent publication US11142525B2 (Pfizer Inc., priority 2018, dated 2021).
# Like-named read-outs stand apart in the source and are kept apart here.
# Legend:
# [1] = biological target: human full-length recombinant HPK1 (Homo sapiens (Human), UniProt Q92918); test: HPK1 biochemical enzyme assay, microfluidic mobility shift assay (MSA); details: read-out: HPK1 Enzyme Assay_Ki
# [2] = tested on: phospho-SLP-76 (Ser376) in Jurkat cells; test: Phospho-SLP-76 (Ser376) Homogeneous Time Resolved Fluorescence (HTRF) assay in Jurkat cells; assay type: cell-based; details: Homo sapiens, read-out: SLP76 Assay_IC50
# Procedure, shortened: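 Jurkat cells pre-treated 30 min with compounds (10 μM to 0.1 nM, 11-point, 0.1% DMSO), then stimulated with 200 μg/mL F(ab)2-complexed anti-CD3 (UCHT1) for 15 min at 37 °C. Lysate phospho-SLP-76 detected by HTRF after overnight antibody incubation; IC50 from four-parameter fit.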
# [3] = Phospho-SLP-76 (Ser376) HTRF, anti-CD3 stimulation
# [4] = mobility shift assay, 75 μM ATP, Morrison equation, tight-binding competitive inhibition
# [5] = 30 min pre-treatment, anti-CD3 stimulation 15 min, HTRF
# Sequence of human full-length recombinant HPK1 (Q92918 whole entry): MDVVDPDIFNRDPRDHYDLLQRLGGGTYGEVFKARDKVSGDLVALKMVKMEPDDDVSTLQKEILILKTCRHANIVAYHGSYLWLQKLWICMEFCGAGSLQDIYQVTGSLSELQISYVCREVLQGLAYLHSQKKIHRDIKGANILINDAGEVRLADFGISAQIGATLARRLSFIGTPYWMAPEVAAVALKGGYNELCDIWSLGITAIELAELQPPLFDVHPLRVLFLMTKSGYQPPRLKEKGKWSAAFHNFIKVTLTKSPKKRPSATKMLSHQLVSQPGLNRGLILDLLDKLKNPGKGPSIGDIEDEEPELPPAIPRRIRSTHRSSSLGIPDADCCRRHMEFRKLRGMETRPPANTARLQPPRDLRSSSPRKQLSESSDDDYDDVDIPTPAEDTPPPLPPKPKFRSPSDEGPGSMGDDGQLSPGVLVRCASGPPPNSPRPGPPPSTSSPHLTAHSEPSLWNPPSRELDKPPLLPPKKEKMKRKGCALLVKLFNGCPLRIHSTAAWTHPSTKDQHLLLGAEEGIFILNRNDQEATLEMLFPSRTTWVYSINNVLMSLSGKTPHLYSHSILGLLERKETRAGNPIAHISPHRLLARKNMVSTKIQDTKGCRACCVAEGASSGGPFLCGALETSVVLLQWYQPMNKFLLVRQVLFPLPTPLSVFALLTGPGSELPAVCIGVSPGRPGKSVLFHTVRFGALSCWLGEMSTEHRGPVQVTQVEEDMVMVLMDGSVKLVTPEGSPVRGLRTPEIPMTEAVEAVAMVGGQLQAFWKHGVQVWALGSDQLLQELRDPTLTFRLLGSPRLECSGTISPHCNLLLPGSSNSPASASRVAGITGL
Compound,Ki ([1]; HPK1 mobility shift assay),"IC50 [2, 3]","Ki [1, 4]","IC50 [2, 5]"
"CCC(CC)n1cnnc1-c1cccc(N2Cc3c(cc(N4CCC[C@H]4C)nc3CNC)C2=O)n1 [Example 144, 4-[(methylamino)methyl]-6-[(2R)-2-methylpyrrolidin-1-yl]-2-{6-[4-(pentan-3-yl)-4H-1,2,4-triazol-3-yl]pyridin-2-yl}-2,3-dihydro-1H-pyrrolo[3,4-c]pyridin-1-one]",< 0.05 nM,15 nM,,
CCCn1c(CC)nnc1-c1cccc(N2Cc3c(cc(N4CCC[C@H]4C)nc3CNC)C2=O)n1 [Example 175],0.94 nM,185 nM,,
"CCCn1cnnc1-c1cccc(N2Cc3c(cc(N(C)C(C)C)nc3CN)C2=O)n1 [Example 82, 4-(aminomethyl)-6-[methyl(propan-2-yl)amino]-2-[6-(4-propyl-4H-1,2,4-triazol-3-yl)pyridin-2-yl]-2,3-dihydro-1H-pyrrolo[3,4-c]pyridin-1-one]",0.12 nM,95 nM,,
"CC[C@H](CC(F)(F)F)n1cnnc1-c1cccc(N2Cc3c(cc(N(C)C)nc3CNC)C2=O)n1 (single isomer, unassigned) [Example 19, 6-(dimethylamino)-4-[(methylamino)methyl]-2-(6-{4-[(3ξ)-1,1,1-trifluoropentan-3-yl]-4H-1,2,4-triazol-3-yl}pyridin-2-yl)-2,3-dihydro-1H-pyrrolo[3,4-c]pyridin-1-one]",,,6.9 nM,> 10000 nM
"CCC(CC)n1cnnc1-c1cccc(N2Cc3c(cc(C4(C)CC4)nc3CNC)C2=O)n1 [Example 57, 4-[(methylamino)methyl]-6-(1-methylcyclopropyl)-2-{6-[4-(pentan-3-yl)-4H-1,2,4-triazol-3-yl]pyridin-2-yl}-2,3-dihydro-1H-pyrrolo[3,4-c]pyridin-1-one]",,,0.21 nM,74 nM
"CNCc1nc(N2[C@H](C)C[C@H]2C)cc2c1CN(c1cccc(-c3nncn3C(C)C)n1)C2=O [Example 28, 6-[(2R,4R)-2,4-dimethylazetidin-1-yl]-4-[(methylamino)methyl]-2-{6-[4-(propan-2-yl)-4H-1,2,4-triazol-3-yl]pyridin-2-yl}-2,3-dihydro-1H-pyrrolo[3,4-c]pyridin-1-one]",,,0.41 nM,119 nM
"CCNc1cc2c(c(CNC)n1)CN(c1cccc(-c3nncn3CC)n1)C2=O [Example 76, 6-(ethylamino)-2-[6-(4-ethyl-4H-1,2,4-triazol-3-yl)pyridin-2-yl]-4-[(methylamino)methyl]-2,3-dihydro-1H-pyrrolo[3,4-c]pyridin-1-one]",0.64 nM,583 nM,,
"CC[C@H](C)n1cnnc1-c1cccc(N2Cc3c(cc(N(C)C)nc3CNC)C2=O)n1 [Example 14, 2-(6-{4-[(2S)-butan-2-yl]-4H-1,2,4-triazol-3-yl}pyridin-2-yl)-6-(dimethylamino)-4-[(methylamino)methyl]-2,3-dihydro-1H-pyrrolo[3,4-c]pyridin-1-one]",,,0.17 nM,102 nM
"CCCn1cnnc1-c1cccc(N2Cc3c(cc(N(C)CC)nc3CNC)C2=O)n1 [Example 59, 6-[ethyl(methyl)amino]-4-[(methylamino)methyl]-2-[6-(4-propyl-4H-1,2,4-triazol-3-yl)pyridin-2-yl]-2,3-dihydro-1H-pyrrolo[3,4-c]pyridin-1-one]",,,0.19 nM,59 nM
"CNCc1nc(N(C)C(C)C)cc2c1CN(c1cccc(N3C(=O)OC[C@@H]3C)n1)C2=O [Example 74, 4-[(methylamino)methyl]-2-{6-[(4S)-4-methyl-2-oxo-1,3-oxazolidin-3-yl]pyridin-2-yl}-6-[methyl(propan-2-yl)amino]-2,3-dihydro-1H-pyrrolo[3,4-c]pyridin-1-one]",0.06 nM,77 nM,,
"CNCc1nc(C(C)C)cc2c1CN(c1cccc(-c3nncn3C(C)C)n1)C2=O [Example 30, 4-[(methylamino)methyl]-6-(propan-2-yl)-2-{6-[4-(propan-2-yl)-4H-1,2,4-triazol-3-yl]pyridin-2-yl}-2,3-dihydro-1H-pyrrolo[3,4-c]pyridin-1-one]",,,2.1 nM,573 nM
"CCCn1cnnc1-c1cccc(N2Cc3c(cc(N(CC)CC)nc3CNC)C2=O)n1 [Example 80, 6-(diethylamino)-4-[(methylamino)methyl]-2-[6-(4-propyl-4H-1,2,4-triazol-3-yl)pyridin-2-yl]-2,3-dihydro-1H-pyrrolo[3,4-c]pyridin-1-one]",0.16 nM,184 nM,,
"CCn1cnnc1-c1cccc(N2Cc3c(cc(N(C)C(C)C)nc3CN)C2=O)n1 [Example 89, 4-(aminomethyl)-2-[6-(4-ethyl-4H-1,2,4-triazol-3-yl)pyridin-2-yl]-6-[methyl(propan-2-yl)amino]-2,3-dihydro-1H-pyrrolo[3,4-c]pyridin-1-one]",< 0.08 nM,54 nM,,
"C[C@@H]1C[C@@H](C)N1c1cc2c(c(CN)n1)CN(c1cccc(N3C(=O)OC[C@@H]3C)n1)C2=O [Example 43, 4-(aminomethyl)-6-[(2R,4R)-2,4-dimethylazetidin-1-yl]-2-{6-[(4S)-4-methyl-2-oxo-1,3-oxazolidin-3-yl]pyridin-2-yl}-2,3-dihydro-1H-pyrrolo[3,4-c]pyridin-1-one]",,,1.92 nM,561 nM
"CCN(CC)c1cc2c(c(CN(C)C)n1)CN(c1cccc(-c3nncn3CC)n1)C2=O [Example 88, 6-(diethylamino)-4-[(dimethylamino)methyl]-2-[6-(4-ethyl-4H-1,2,4-triazol-3-yl)pyridin-2-yl]-2,3-dihydro-1H-pyrrolo[3,4-c]pyridin-1-one]",2.52 nM,2680 nM,,
"CCn1cnnc1-c1cccc(N2Cc3c(cc(N(C)C(C)C)nc3CNC)C2=O)n1 [Example 71, 2-[6-(4-ethyl-4H-1,2,4-triazol-3-yl)pyridin-2-yl]-4-[(methylamino)methyl]-6-[methyl(propan-2-yl)amino]-2,3-dihydro-1H-pyrrolo[3,4-c]pyridin-1-one]",0.18 nM,40 nM,,
"CNCc1nc(NC(C)C)cc2c1CN(c1cccc(-c3nncn3C(C)C)n1)C2=O [Example 78, 4-[(methylamino)methyl]-6-(propan-2-ylamino)-2-{6-[4-(propan-2-yl)-4H-1,2,4-triazol-3-yl]pyridin-2-yl}-2,3-dihydro-1H-pyrrolo[3,4-c]pyridin-1-one]",0.73 nM,307 nM,,
"CNCc1nc(N2CCCC2(C)C)cc2c1CN(c1cccc(-c3nncn3C(C)C)n1)C2=O [Example 109, 6-(2,2-dimethylpyrrolidin-1-yl)-4-[(methylamino)methyl]-2-{6-[4-(propan-2-yl)-4H-1,2,4-triazol-3-yl]pyridin-2-yl}-2,3-dihydro-1H-pyrrolo[3,4-c]pyridin-1-one]",0.06 nM,12 nM,,
"CCn1cnnc1-c1cccc(N2Cc3c(cc(N4CCC[C@@H]4C)nc3CNC)C2=O)n1 [Example 114, 2-[6-(4-ethyl-4H-1,2,4-triazol-3-yl)pyridin-2-yl]-4-[(methylamino)methyl]-6-[(2S)-2-methylpyrrolidin-1-yl]-2,3-dihydro-1H-pyrrolo[3,4-c]pyridin-1-one]",0.12 nM,37 nM,,
"CCN(c1cc2c(c(CN)n1)CN(c1cccc(-c3nncn3C(C)C)n1)C2=O)C(C)C [Example 145, 4-(aminomethyl)-6-[ethyl(propan-2-yl)amino]-2-{6-[4-(propan-2-yl)-4H-1,2,4-triazol-3-yl]pyridin-2-yl}-2,3-dihydro-1H-pyrrolo[3,4-c]pyridin-1-one]",0.47 nM,61 nM,,
CCn1c(C)nnc1-c1cccc(N2Cc3c(cc(N(C)C(C)C)nc3CN)C2=O)n1 [Example 158],0.38 nM,83 nM,,
"CCCn1cnnc1-c1cccc(N2Cc3c(cc(N(CC)C(C)C)nc3CN)C2=O)n1 [Example 146, 4-(aminomethyl)-6-[ethyl(propan-2-yl)amino]-2-[6-(4-propyl-4H-1,2,4-triazol-3-yl)pyridin-2-yl]-2,3-dihydro-1H-pyrrolo[3,4-c]pyridin-1-one]",0.91 nM,106 nM,,
"CCCn1cnnc1-c1cccc(N2Cc3c(cc(N4CCC4)nc3CNC)C2=O)n1 [Example 93, 6-(azetidin-1-yl)-4-[(methylamino)methyl]-2-[6-(4-propyl-4H-1,2,4-triazol-3-yl)pyridin-2-yl]-2,3-dihydro-1H-pyrrolo[3,4-c]pyridin-1-one]",0.42 nM,713 nM,,
"CNCc1nc(N2[C@H](C)CC[C@H]2C)cc2c1CN(c1cccc(N3C(=O)OC[C@@H]3CF)n1)C2=O [Example 118, 6-[(2R,5R)-2,5-dimethylpyrrolidin-1-yl]-2-{6-[(4R)-4-(fluoromethyl)-2-oxo-1,3-oxazolidin-3-yl]pyridin-2-yl}-4-[(methylamino)methyl]-2,3-dihydro-1H-pyrrolo[3,4-c]pyridin-1-one]",0.89 nM,149 nM,,
"CNCc1nc(N2[C@H](C)CC[C@H]2C)cc2c1CN(c1cccc(-c3nncn3C(C)C)n1)C2=O [Example 8, 6-[(2R,5R)-2,5-dimethylpyrrolidin-1-yl]-4-[(methylamino)methyl]-2-{6-[4-(propan-2-yl)-4H-1,2,4-triazol-3-yl]pyridin-2-yl}-2,3-dihydro-1H-pyrrolo[3,4-c]pyridin-1-one]",,,0.25 nM,89 nM
"CCCn1cnnc1-c1cccc(N2Cc3c(cc(N(C)C)nc3CNC)C2=O)n1 [Example 46, 6-(dimethylamino)-4-[(methylamino)methyl]-2-[6-(4-propyl-4H-1,2,4-triazol-3-yl)pyridin-2-yl]-2,3-dihydro-1H-pyrrolo[3,4-c]pyridin-1-one]",,,0.14 nM,94 nM
